Reference: US20190161807A1, “RAD51C as a Human Cancer Susceptibility Gene” (Heinrich-Heine-Universität Düsseldorf, priority 2010, published 2019)

System: RAD51C bi-allelic mutated cells
Assay: Toxicity of PARP inhibitor / topoisomerase I inhibitor exposure in cells with reduced or absent RAD51C function (FIG. 5, FIG. 6)
Format: cell-based
Conditions: RAD51C bi-allelic mutated cells vs normal cells, mono-allelic RAD51C mutated cells and RAD51C-complemented cells

SMILES | sensitivity (toxicity) of cells towards exposure to the PARP inhibitor (FIG. 5, means±SD, n=3) | sensitivity (toxicity) of cells towards exposure to the topoisomerase I inhibitor (FIG. 6, means±SD, n=4)
CN(C)CC(=O)Nc1ccc2[nH]c(=O)c3ccccc3c2c1 [PJ34] | increased toxicities | 
CC[C@@]1(O)C(=O)OCc2c1cc1n(c2=O)Cc2cc3ccccc3nc2-1 [camptothecin] |  | increased toxicities
